# Assay results from patent publication US4540700A, “Treatment of diabetic complications with certain spiro-imidazolidine-diones” (Alcon Laboratories, Inc., priority 1984, dated 1985).
# System: cataract formation in galactocemic rats
# Assay: in vivo dose response by intubation (per oral) in galactocemic rats, cataract (vacuole) formation
# Design: species or system Charles River CD (Sprague-Dawley derived) male rats
# Procedure: B. In vivo dose response studies were conducted to test the in vivo activity of the following compounds by intubation (per oral) in galactocemic rats on a 30% galactose diet previously described:
# Stock suspensions of the test compounds and all dilutions of the compound were formulated with 0.03% by weight Tween 80.
# Healthy, Charles River CD (outbred albino, Sprague-Dawley derived) male rats, aged 20-30 days, without observable ocular defects and ranging in weight from 35-45 grams, were acclimated to experimental conditions (in quarantine) for two days prior to beginning the study.
# Rats were individually assigned to one of twenty-three groups according to a random number schedule. Two rats, belonging to the same drug-diet treatment group, were housed per cage. Treatment and control groups consisted of six (6) rats each with no replacement in the event of death, and were designated as follows:
# Lenses of all eyes were examined with a hand-held ophthalmoscope in the early stages of cataract development and a penlight for the stages, snowflake-like, snowflake, and nuclear cataract. Lens grading occurred every day for the first ten study days, and then every other day until study Day 14.
# The relative potency determination was made at 7 drug levels over half log dose intervals. The response (percent cataracts formed and/or the time to cataract formation) was plotted against mg/kg and/or moles/kg.
# The study was directed to the suppression and/or elimination of the initial stages of cataract development characterized by vacuoles or snowflake-likeopacities only. It was assumed therefore that suppression and/or elimination of vacuoles or lens opacification by the test drugs affects the transport, absorption and/or metabolism of galactose in such a manner as to prevent subsequent osmotic disturbances normally leading to tissue degeneration and advanced cataract. Advanced cataract defined as stages 2-4 of the Sipple classification was assumed to be of secondary importance to the etiology of cataract inhibition.
# In the event where cataract stage other than vacuole formed, such as snowflake-like opacities, this cataract was counted similarly as vacuole in percent cataract formation.
# This study yielded this expected effect in the control groups.
# All animals were fed Purina Laboratory Chow and water, ad libitum, for the two day acclimation period. All drugs were dosed orally by intubation using an animal feeding needle (Popper and Sons), 18 or 20 gauge, attached to a 1 or 3 ml syringe. Once the dosing time schedule was established, the schedule was followed throughout the study to compensate for any diurnal variation.
# The animals were kept on a twelve hour day/night cycle. The temperature and humidity were determined each day at the scheduled dosing time of 1:00 p.m.
# The animals were weighed every other day and adjustments to dosage amounts to compensate for weight gain were made each day prior to the dose time. All food was routinely withheld from all animal groups for four hours (9:00 a.m.) prior to the drug dose and restored two hours (3:00 p.m.) post-dose. Otherwise sufficient amounts of chow or diet mixture were maintained in the food hopper to allow the animals to eat ad libitum. There were two days of drug dosage with the animals remaining on Purina Laboratory Chow (Days 1 and 2). The 30% galactose diet mixture was introduced to the animals two hours post-dose on Day 3 which constituted Day 1 of the study.
# All eyes were examined with a hand-held ophthalmoscope and/or penlight at the times designated in the Experimental Design section.
# It has been found in previous studies that dilation of the eye with a mydriactic (i.e. Mydriacyl) is not necessary for accurate grading, due to the semi-transparent nature of the rat iris. In the early stages (i.e., grades -, ±, and +) the lens was observed by reflecting the ophthalmoscope beam off the retina back through the lens and iris. Using this technique, vacuoles appear as dark, almost opaque patches. […]
# [1] = relative to Sarges Racemic, observation day 12, 95% confidence limits
smiles,measurement,setting,value
"O=C1NC(=O)C2(N1)c1ccccc1-c1ccc(F)cc12 (racemic) [Compound L, dl-Spiro(2-fluorofluoren-9,4'-imidazolidine)-2',5'-dione]",Percent of Rat Eyes With at Least Vacuoles Formed,"4.0 mg/kg p.o., Day 8, listed as 2-fluoro",0%
same,Percent of Rat Eyes With at Least Vacuoles Formed,"4.0 mg/kg p.o., Day 9",0.0%
same,Percent of Rat Eyes With at Least Vacuoles Formed,"4.0 mg/kg p.o., Day 9, listed as 2-fluoro",0%
same,Percent of Rat Eyes With at Least Vacuoles Formed,"4.0 mg/kg p.o., Day 10",0.0%
same,Percent of Rat Eyes With at Least Vacuoles Formed,"4.0 mg/kg p.o., Day 10, listed as 2-fluoro",0%
same,Percent of Rat Eyes With at Least Vacuoles Formed,"4.0 mg/kg p.o., Day 12",0.0%
same,Percent of Rat Eyes With at Least Vacuoles Formed,"4.0 mg/kg p.o., Day 12, listed as 2-fluoro",0%
same,Percent of Rat Eyes With at Least Vacuoles Formed,"4.0 mg/kg p.o., Day 14",0.0%
same,Percent of Rat Eyes With at Least Vacuoles Formed,"4.0 mg/kg p.o., Day 14, listed as 2-fluoro",0%
same,Percent of Rat Eyes With at Least Vacuoles Formed,"12.6 mg/kg p.o., Day 0",0%
same,Percent of Rat Eyes With at Least Vacuoles Formed,"12.6 mg/kg p.o., Day 1",0%
same,Percent of Rat Eyes With at Least Vacuoles Formed,"12.6 mg/kg p.o., Day 2",0%
same,Percent of Rat Eyes With at Least Vacuoles Formed,"12.6 mg/kg p.o., Day 3",0%
same,Percent of Rat Eyes With at Least Vacuoles Formed,"12.6 mg/kg p.o., Day 4",0%
same,Percent of Rat Eyes With at Least Vacuoles Formed,"12.6 mg/kg p.o., Day 5",0%
same,Percent of Rat Eyes With at Least Vacuoles Formed,"12.6 mg/kg p.o., Day 6",0.0%
same,Percent of Rat Eyes With at Least Vacuoles Formed,"12.6 mg/kg p.o., Day 6, listed as 2-fluoro",0%
same,Percent of Rat Eyes With at Least Vacuoles Formed,"12.6 mg/kg p.o., Day 7",0.0%
same,Percent of Rat Eyes With at Least Vacuoles Formed,"12.6 mg/kg p.o., Day 7, listed as 2-fluoro",0%
same,Percent of Rat Eyes With at Least Vacuoles Formed,"12.6 mg/kg p.o., Day 8",0.0%
same,Percent of Rat Eyes With at Least Vacuoles Formed,"12.6 mg/kg p.o., Day 8, listed as 2-fluoro",0%
same,Percent of Rat Eyes With at Least Vacuoles Formed,"12.6 mg/kg p.o., Day 9",0.0%
same,Percent of Rat Eyes With at Least Vacuoles Formed,"12.6 mg/kg p.o., Day 9, listed as 2-fluoro",0%
same,Percent of Rat Eyes With at Least Vacuoles Formed,"12.6 mg/kg p.o., Day 10",0.0%
same,Percent of Rat Eyes With at Least Vacuoles Formed,"12.6 mg/kg p.o., Day 10, listed as 2-fluoro",0%
same,Percent of Rat Eyes With at Least Vacuoles Formed,"12.6 mg/kg p.o., Day 12",0.0%
same,Percent of Rat Eyes With at Least Vacuoles Formed,"12.6 mg/kg p.o., Day 12, listed as 2-fluoro",0%
same,Percent of Rat Eyes With at Least Vacuoles Formed,"12.6 mg/kg p.o., Day 14",0.0%
same,Percent of Rat Eyes With at Least Vacuoles Formed,"12.6 mg/kg p.o., Day 14, listed as 2-fluoro",0%
same,Percent of Rat Eyes With at Least Vacuoles Formed,"40 mg/kg p.o., Day 0",0%
same,Percent of Rat Eyes With at Least Vacuoles Formed,"40 mg/kg p.o., Day 1",0%
same,Percent of Rat Eyes With at Least Vacuoles Formed,"40 mg/kg p.o., Day 2",0%
same,Percent of Rat Eyes With at Least Vacuoles Formed,"40 mg/kg p.o., Day 3",0%
same,Percent of Rat Eyes With at Least Vacuoles Formed,"40 mg/kg p.o., Day 4",0%
same,Percent of Rat Eyes With at Least Vacuoles Formed,"40 mg/kg p.o., Day 5",0%
same,Percent of Rat Eyes With at Least Vacuoles Formed,"40 mg/kg p.o., Day 6",0.0%
same,Percent of Rat Eyes With at Least Vacuoles Formed,"40 mg/kg p.o., Day 6, listed as 2-fluoro",0%
same,Percent of Rat Eyes With at Least Vacuoles Formed,"40 mg/kg p.o., Day 7",0.0%
same,Percent of Rat Eyes With at Least Vacuoles Formed,"40 mg/kg p.o., Day 7, listed as 2-fluoro",0%
same,Percent of Rat Eyes With at Least Vacuoles Formed,"40 mg/kg p.o., Day 8",0.0%
same,Percent of Rat Eyes With at Least Vacuoles Formed,"40 mg/kg p.o., Day 8, listed as 2-fluoro",0%
same,Percent of Rat Eyes With at Least Vacuoles Formed,"40 mg/kg p.o., Day 9",0.0%
same,Percent of Rat Eyes With at Least Vacuoles Formed,"40 mg/kg p.o., Day 9, listed as 2-fluoro",0%
same,Percent of Rat Eyes With at Least Vacuoles Formed,"40 mg/kg p.o., Day 10",0.0%
same,Percent of Rat Eyes With at Least Vacuoles Formed,"40 mg/kg p.o., Day 10, listed as 2-fluoro",0%
same,Percent of Rat Eyes With at Least Vacuoles Formed,"40 mg/kg p.o., Day 12",0.0%
same,Percent of Rat Eyes With at Least Vacuoles Formed,"40 mg/kg p.o., Day 12, listed as 2-fluoro",0%
same,Percent of Rat Eyes With at Least Vacuoles Formed,"40 mg/kg p.o., Day 14",0.0%
same,Percent of Rat Eyes With at Least Vacuoles Formed,"40 mg/kg p.o., Day 14, listed as 2-fluoro",0%
same,activity in vivo relative to the Sarges compound,rat studies,unexpectedly and significantly more active
same,Relative Potency (antilog),[1],4.58
same,log relative potency for eyes with vacuoles or more advanced cataracts,[1],0.6605
